This passage reports LRP1 expression results from patent US20100055712A1, “Oligopeptides for treatment of osteoporosis and other bone diseases and methods therefor” (Washington University, priority 2008, published 2010).

Molecules are shown by their SMILES. *1 amine or outer side, *2 acyl side, *3 side chain or, on linkers, in order; H or OH if unused. Where a SMILES comes first, the peptide text is derived from it. [ ]: non-standard residue; d: D form. The star is where a group is joined. X1 = CC(N[*:1])C(=O)C(F)(F)C(=O)[*:2]; Boc = CC(C)(C)OC(=O)*

In this test the test system is LRP1 expression in WT MEF cells. Put plainly: LRP1 expression in WT MEF cells after treatment with γ-secretase inhibitors (western blot). Type of test: cell-based, mouse. The following applies: FIGS. 5I and 5J. The text has this:
The requirement of γ-secretase activity in LRP1 regulation was further verified by two alternative approaches.

On to `C[C@H](NC(=O)Cc1cc(F)cc(F)c1)C(=O)N[C@H](C(=O)OC(C)(C)C)c1ccccc1` [DAPT], for which the LRP1 expression entry was “enhanced LRP1 expression”.

As to `CC(C)C[C@H](NC(=O)[C@H](Cc1ccccc1)C[C@@H](O)[C@H](Cc1ccccc1)NC(=O)OC(C)(C)C)C(=O)N[C@@H](Cc1ccccc1)C(N)=O` [L685,458], the LRP1 expression result is “enhanced LRP1 expression”.

Take `CCC(C)C(NC(=O)C(NC(=O)OC(C)(C)C)C(C)C)C(=O)NC(C)C(=O)C(F)(F)C(=O)NC(C(=O)NC(C(=O)OC)C(C)CC)C(C)C` (stereo not drawn) [DFK, DFK167] (Boc-VI[X1]VI-OMe; configuration not given here): the LRP1 expression result was “enhanced LRP1 expression”.
